For two molecules, AUC effect results are on record in publication PMC3365014, “Specific Recognition of p53 Tetramers by Peptides Derived from p53 Interacting Proteins” (PLoS ONE, 2012).

This assay relates to FlAsH-labeled full-length p53 (M133L/V203A/N239Y/N268D). The assay can be described thus: Fluorescence-monitored analytical ultracentrifugation sedimentation velocity. As to conditions: 25–50 nM FlAsH-p53, peptide up to 500 µM or solubility limit; 25 mM NaPi pH 7.2, 150 mM NaCl, 10% glycerol, 10°C. The assay is classed as binding.

“Also recorded” adds a separate entry of the source.

Description: We tested whether the peptides that bind tetrameric p53CTD can bind specifically to tetrameric p53 in a mixture of the different oligomers. Testing the specificity of the peptides for tetrameric p53 must be performed at very low p53 concentrations (<100 nM), where a significant population of dimers is present in addition to the tetramers [21]. Therefore, we used fluorescence-monitored analytical ultracentrifugation sedimentation velocity experiments using FlAsH-labeled full-length p53. The fluorescent label on p53 enables working at nanomolar protein concentrations and allows for specific detection of the protein without interference from any other molecule in the solution.
We incubated FlAsH-p53 with different concentrations of the peptides and measured the sedimentation profiles of the protein (Figure 7). […] Sedimentation coefficients of∼2 S correspond to dimers and∼3 S correspond to tetramers. Presumably, sedimentation coefficients of up to∼4 S correspond to p53 tetramers bound to one or more peptide molecules. […] Most likely higher sedimentation coefficients (>4 S) correspond to higher-order oligomers of p53.
C-terminally FlAsH-tagged (CCPGCC) p53 was expressed and reacted with FlAsH-EDT2 as described [24]. This introduces a specific fluorescent label at the carboxy terminus of p53. The protein was dialyzed against 25 mM NaPi pH = 7.2, 150 mM NaCl, 14.2 mM β-mercaptoethanol, 0.2 mg/ml BSA and 10% glycerol. […] The measurements were performed in a Beckman-Coulter Optima XL-I ultracentrifuge with an Aviv fluorescence detection system [29] in SedVel60K-FDS fluorescence velocity cells. The samples were equilibrated in the cells at 10°C for 3 hours before centrifugation. The AUC run was performed as described [23], [48] and analyzed using SedFit software [56].

With `CSCC[C@H](NC(=O)CNC(=O)[C@@H]1CCCN1C(=O)[C@H](CCC(N)=O)NC(=O)[C@H](CC(C)C)NC(=O)[C@@H](N)[C@@H](C)O)C(=O)N[C@@H](CCCNC(=N)N)C(=O)N[C@H](C(=O)N[C@@H](CCCNC(=N)N)C(=O)N[C@@H](CCSC)C(=O)N[C@@H](CC(C)C)C(=O)N[C@@H](CC(=O)O)C(=O)N[C@@H](CC(=O)O)C(=O)N[C@@H](Cc1ccc(O)cc1)C(=O)N[C@@H](CCC(=O)O)C(N)=O)C(C)C` [Cul7(376–390)], the AUC effect entry is “a specific shift of the tetramer peak was observed but at much higher concentrations, and no high-order oligomers were formed; also recorded: causes a shift of the tetramer peak at very high peptide concentrations; also recorded: Tetramer shift”. With `CC[C@H](C)[C@H](NC(=O)[C@H](CCC(=O)O)NC(=O)[C@H](CCC(=O)O)NC(=O)[C@H](Cc1ccc(O)cc1)NC(=O)[C@H](CC(=O)O)NC(=O)[C@H](CC(=O)O)NC(=O)[C@H](CC(C)C)NC(=O)[C@H](CCSC)NC(=O)[C@H](CCCNC(=N)N)NC(=O)[C@@H](NC(=O)[C@H](CCCNC(=N)N)NC(=O)[C@H](CCSC)NC(=O)CN)C(C)C)C(=O)N[C@@H](CO)C(=O)N[C@@H](C)C(N)=O` [PARC(386–400)], the AUC effect result is “a specific shift of the tetramer peak was observed but at much higher concentrations, and no high-order oligomers were formed; also recorded: Tetramer shift”.
